Data: the supplement of paper PMC10307832

What was measured:
Test in all cases: relative viability (nuclei count vs DMSO), 5 days (fraction); higher = more cells survive
Trametinib + Pictilisib = compound: CC(=O)Nc1cccc(-n2c(=O)n(C3CC3)c(=O)c3c(Nc4ccc(I)cc4F)n(C)c(=O)c(C)c32)c1 [Trametinib] + CS(=O)(=O)N1CCN(Cc2cc3nc(-c4cccc5[nH]ncc45)nc(N4CCOCC4)c3s2)CC1 [Pictilisib] (partner 1 µM)
Outline: (§1)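 Cells from lung cancer lines were seeded into 1536-well plates and, one day later, dosed by pin tool. Treatments were either a single drug or a fixed dose of an anchor drug with five library-drug doses (not always all listed) in √10 steps. After 5 days, nuclei were stained in a one-step fixation (final 0.05% Triton X-100, 1% formaldehyde, 1 ug/ml Hoechst) and counted on 4× images, and relative viability is the treated-to-vehicle nuclei ratio, as the median of duplicate plates.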

Trametinib + Vorinostat = compound: CC(=O)Nc1cccc(-n2c(=O)n(C3CC3)c(=O)c3c(Nc4ccc(I)cc4F)n(C)c(=O)c(C)c32)c1 [Trametinib] + O=C(CCCCCCC(=O)Nc1ccccc1)NO [Vorinostat] (partner 1 µM)
Outline: as §1

[1] = compound: CN1C=C(C2=CC=CC=C21)/C=C\3/C4=C(C=CC=N4)NC3=O + CC(=O)c1c(C)c2cnc(Nc3ccc(N4CCNCC4)cn3)nc2n(C2CCCC2)c1=O [Palbociclib] (partner 0.5 µM)
Outline: as §1

[2] = compound: CN1C=C(C2=CC=CC=C21)/C=C\3/C4=C(C=CC=N4)NC3=O + C[C@]1(O)C[C@@H](c2nc(-c3ccc4ccc(-c5ccccc5)nc4c3)c3c(N)nccn32)C1 [Linsitinib] (partner 1 µM)
Outline: as §1

Row | Cell Line | relative viability (Trametinib + Pictilisib; first compound 0.0025 µM) | relative viability (Trametinib + Pictilisib; first compound 0.007906 µM) | relative viability (Trametinib + Pictilisib; first compound 0.025 µM) | relative viability (Trametinib + Pictilisib; first compound 0.07906 µM) | relative viability (Trametinib + Pictilisib; first compound 0.25 µM) | relative viability (Trametinib + Vorinostat; first compound 0.0025 µM) | relative viability (Trametinib + Vorinostat; first compound 0.007906 µM) | relative viability (Trametinib + Vorinostat; first compound 0.025 µM) | relative viability (Trametinib + Vorinostat; first compound 0.07906 µM) | relative viability (Trametinib + Vorinostat; first compound 0.25 µM) | relative viability ([1]; first compound 0.02 µM) | relative viability ([1]; first compound 0.06325 µM) | relative viability ([1]; first compound 0.6325 µM) | relative viability ([1]; first compound 2 µM) | relative viability ([2]; first compound 0.02 µM) | relative viability ([2]; first compound 0.06325 µM) | relative viability ([2]; first compound 0.6325 µM) | relative viability ([2]; first compound 2 µM) | relative viability ([1]; first compound 0.2 µM) | relative viability ([2]; first compound 0.2 µM)
1 | NCI-H1944 | 0.333 | 0.307 | 0.253 | 0.278 | 0.262 | 0.556 | 0.387 | 0.382 | 0.348 | 0.28 | 0.28 | 0.351 | 0.267 | 0.314 | 1.19 | 1.18 | 1.32 | 1.23 | – | –
2 | NCI-H2009 | 0.502 | 0.366 | 0.148 | 0.206 | 0.208 | 0.76 | 0.634 | 0.341 | 0.354 | 0.336 | 0.189 | 0.198 | 0.198 | 0.201 | 1.24 | 1.11 | 1.23 | 1.25 | 0.202 | 1.23
3 | NCI-H441 | 0.44 | 0.306 | 0.234 | 0.214 | 0.163 | 0.819 | 0.797 | 0.722 | 0.749 | 0.608 | 0.199 | 0.163 | 0.194 | 0.193 | 0.634 | 0.588 | 0.424 | 0.57 | 0.189 | 0.494
4 | NCI-H1437 | 0.151 | 0.144 | 0.113 | 0.129 | 0.148 | 0.813 | 0.642 | 0.516 | 0.447 | 0.377 | 0.344 | 0.34 | 0.32 | 0.318 | 1.06 | 1.12 | 1.18 | 1.2 | 0.292 | 1.25
